# Reference: ChEMBL document CHEMBL1201862, “PubChem BioAssay data set” (2004)
#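 The compound was tested at five concentrations on cells cultured in 96-well plates, with a 48-hour exposure period. GI50 marks 50% less growth.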 The source made the active and inactive calls. Rule as the data show it: active = GI50 up to about 1.1 µM and inactive = higher.
# Key:
# Test in all cases: inhibition of tumour cell growth, NCI panel, 48 h
# LOX IMVI = system: LOX IMVI
# HCC 2998 = system: HCC 2998
# Hs-578T = system: Hs-578T
# CAKI-1 = system: CAKI-1
# OVCAR-5 = system: OVCAR-5
# UO-31 = system: UO-31
# SK-MEL-28 = system: SK-MEL-28
# OVCAR-3 = system: OVCAR-3
# T47D = system: T47D
# ACHN = system: ACHN
# CCRF-CEM = system: CCRF-CEM
# COLO 205 = system: COLO 205
# NCI-H23 = system: NCI-H23
# IGROV-1 = system: IGROV-1
# SF-539 = system: SF-539
# SNB-19 = system: SNB-19
# SF-295 = system: SF-295
# OVCAR-8 = system: OVCAR-8
# SF-268 = system: SF-268
# HCT-15 = system: HCT-15
# MDA-MB-435 = system: MDA-MB-435
# SN12C = system: SN12C
# SK-MEL-2 = system: SK-MEL-2
# DU-145 = system: DU-145
# SR = system: SR
# TK-10 = system: TK-10
# SW-620 = system: SW-620
# A549 = system: A549
# HCT-116 = system: HCT-116
# MDA-N = system: MDA-N
# HL-60 = system: HL-60
# 786-0 = system: 786-0
# BT-549 = system: BT-549
# PC-3 = system: PC-3
# NCI-H522 = system: NCI-H522
# SNB-75 = system: SNB-75
# MOLT-4 = system: MOLT-4
# UACC-257 = system: UACC-257
# HT-29 = system: HT-29
# K562 = system: K562
# MCF7 = system: MCF7
# NCI/ADR-RES = system: NCI/ADR-RES
# OVCAR-4 = system: OVCAR-4
# NCI-H226 = system: NCI-H226
# HOP-62 = system: HOP-62
# RPMI-8226 = system: RPMI-8226
# RXF 393 = system: RXF 393
# Malme-3M = system: Malme-3M
# NCI-H460 = system: NCI-H460
# EKVX = system: EKVX
# SK-MEL-5 = system: SK-MEL-5
# MDA-MB-231 = system: MDA-MB-231
# M14 = system: M14
# SK-OV-3 = system: SK-OV-3
# HOP-92 = system: HOP-92
# UACC-62 = system: UACC-62
# KM12 = system: KM12
# A498 = system: A498
# U-251 = system: U-251
compound,measurement,setting,value
CC(=O)N1C(Nc2cccc3nc(C)ccc23)CCN1c1ccccc1 (stereo not given),GI50,LOX IMVI,> 10 µM (inactive)
same,GI50,HCC 2998,> 10 µM (inactive)
same,GI50,Hs-578T,> 10 µM (inactive)
same,GI50,CAKI-1,> 10 µM (inactive)
same,GI50,OVCAR-5,> 10 µM (inactive)
same,GI50,UO-31,> 10 µM (inactive)
same,GI50,SK-MEL-28,> 10 µM (inactive)
same,GI50,OVCAR-3,> 10 µM (inactive)
same,GI50,T47D,> 10 µM (inactive)
same,GI50,ACHN,> 10 µM (inactive)
same,GI50,CCRF-CEM,> 10 µM (inactive)
same,GI50,COLO 205,> 10 µM (inactive)
same,GI50,NCI-H23,> 10 µM (inactive)
same,GI50,IGROV-1,> 10 µM (inactive)
same,GI50,SF-539,> 10 µM (inactive)
same,GI50,SNB-19,> 10 µM (inactive)
same,GI50,SF-295,> 10 µM (inactive)
same,GI50,OVCAR-8,> 10 µM (inactive)
same,GI50,SF-268,> 10 µM (inactive)
same,GI50,HCT-15,7.98 µM
same,GI50,MDA-MB-435,> 10 µM (inactive)
same,GI50,SN12C,> 10 µM (inactive)
same,GI50,SK-MEL-2,> 10 µM (inactive)
same,GI50,DU-145,> 10 µM (inactive)
same,GI50,SR,7.19 µM (inactive)
same,GI50,TK-10,> 10 µM (inactive)
same,GI50,SW-620,5.73 µM (inactive)
same,GI50,A549,> 10 µM (inactive)
same,GI50,HCT-116,> 10 µM (inactive)
same,GI50,MDA-N,> 10 µM (inactive)
same,GI50,HL-60,8.2 µM (inactive)
same,GI50,786-0,> 10 µM (inactive)
same,GI50,BT-549,> 10 µM (inactive)
same,GI50,PC-3,> 10 µM (inactive)
same,GI50,NCI-H522,> 10 µM (inactive)
same,GI50,SNB-75,> 10 µM (inactive)
same,GI50,MOLT-4,> 10 µM (inactive)
same,GI50,UACC-257,> 10 µM (inactive)
same,GI50,HT-29,> 10 µM (inactive)
same,GI50,K562,> 10 µM (inactive)
same,GI50,MCF7,> 10 µM (inactive)
same,GI50,NCI/ADR-RES,> 10 µM (inactive)
same,GI50,OVCAR-4,> 10 µM (inactive)
same,GI50,NCI-H226,> 10 µM (inactive)
same,GI50,HOP-62,> 10 µM (inactive)
same,GI50,RPMI-8226,> 10 µM (inactive)
same,GI50,RXF 393,> 10 µM (inactive)
same,GI50,Malme-3M,> 10 µM (inactive)
same,GI50,NCI-H460,> 10 µM (inactive)
same,GI50,EKVX,> 10 µM (inactive)
same,GI50,SK-MEL-5,> 10 µM (inactive)
same,GI50,MDA-MB-231,> 10 µM (inactive)
same,GI50,M14,> 10 µM (inactive)
same,GI50,SK-OV-3,> 10 µM (inactive)
O=C1C=CC(=O)[C@H]2C3C=CC(C4C3C3(Cl)C(Cl)=C(Cl)[C@]4(Cl)C3(Cl)Cl)[C@@H]12 (stereo not given in full),GI50,LOX IMVI,3.32 µM (inactive)
same,GI50,HOP-92,2.18 µM (inactive)
same,GI50,Hs-578T,10.9 µM (inactive)
same,GI50,CAKI-1,11.5 µM (inactive)
same,GI50,OVCAR-5,7.46 µM (inactive)
same,GI50,UO-31,10.3 µM (inactive)
same,GI50,SK-MEL-28,4.91 µM (inactive)
same,GI50,OVCAR-3,2.95 µM (inactive)
same,GI50,T47D,5.48 µM (inactive)
same,GI50,ACHN,8.55 µM (inactive)
same,GI50,CCRF-CEM,2.95 µM (inactive)
same,GI50,COLO 205,5.7 µM (inactive)
same,GI50,NCI-H23,12.6 µM (inactive)
same,GI50,IGROV-1,5.79 µM (inactive)
same,GI50,SF-539,5.28 µM (inactive)
same,GI50,SNB-19,5.62 µM (inactive)
same,GI50,SF-295,12.5 µM (inactive)
same,GI50,OVCAR-8,8.47 µM (inactive)
same,GI50,SF-268,5.71 µM (inactive)
same,GI50,HCT-15,4.11 µM
same,GI50,MDA-MB-435,2.51 µM (inactive)
same,GI50,SN12C,5.58 µM (inactive)
same,GI50,SK-MEL-2,7.76 µM (inactive)
same,GI50,DU-145,8.97 µM (inactive)
same,GI50,SR,1.66 µM (inactive)
same,GI50,TK-10,16.8 µM (inactive)
same,GI50,UACC-62,8.83 µM (inactive)
same,GI50,SW-620,9.57 µM (inactive)
same,GI50,KM12,4.92 µM (inactive)
same,GI50,A549,4.03 µM (inactive)
same,GI50,HCT-116,3.61 µM (inactive)
same,GI50,MDA-N,4.52 µM (inactive)
same,GI50,HL-60,1.57 µM (inactive)
same,GI50,786-0,5.94 µM (inactive)
same,GI50,BT-549,5.96 µM (inactive)
same,GI50,PC-3,4.94 µM (inactive)
same,GI50,A498,16 µM (inactive)
same,GI50,NCI-H522,11 µM (inactive)
same,GI50,SNB-75,12.2 µM (inactive)
same,GI50,MOLT-4,3.75 µM (inactive)
same,GI50,UACC-257,2.32 µM (inactive)
same,GI50,HT-29,3.66 µM (inactive)
same,GI50,K562,3.14 µM (inactive)
same,GI50,MCF7,3.91 µM (inactive)
same,GI50,NCI/ADR-RES,5.83 µM (inactive)
same,GI50,OVCAR-4,4.4 µM (inactive)
same,GI50,U-251,3.46 µM (inactive)
same,GI50,NCI-H226,6.47 µM (inactive)
same,GI50,HOP-62,17.1 µM (inactive)
same,GI50,RPMI-8226,3.3 µM (inactive)
same,GI50,RXF 393,4.17 µM (inactive)
same,GI50,Malme-3M,10.6 µM (inactive)
same,GI50,NCI-H460,4.02 µM (inactive)
same,GI50,EKVX,4.02 µM (inactive)
same,GI50,SK-MEL-5,3.55 µM (inactive)
same,GI50,MDA-MB-231,4.45 µM (inactive)
same,GI50,M14,4.3 µM (inactive)
same,GI50,SK-OV-3,14.2 µM (inactive)
CC(=O)Nc1ccc(/C=C/[N+](=O)[O-])cc1,GI50,LOX IMVI,1.71 µM (inactive)
same,GI50,HOP-92,4.14 µM (inactive)
same,GI50,Hs-578T,4.85 µM (inactive)
same,GI50,CAKI-1,0.573 µM (active)
same,GI50,OVCAR-5,2.58 µM (inactive)
same,GI50,UO-31,2 µM (inactive)
same,GI50,SK-MEL-28,1.83 µM (inactive)
same,GI50,OVCAR-3,2.98 µM (inactive)
same,GI50,T47D,4.1 µM (inactive)
same,GI50,ACHN,3.42 µM (inactive)
same,GI50,CCRF-CEM,2.33 µM (inactive)
same,GI50,COLO 205,2.53 µM (inactive)
same,GI50,NCI-H23,3.09 µM (inactive)
same,GI50,IGROV-1,2.37 µM (inactive)
same,GI50,SF-539,2.37 µM (inactive)
same,GI50,SNB-19,7.19 µM (inactive)
same,GI50,SF-295,5.71 µM (inactive)
same,GI50,OVCAR-8,6.07 µM (inactive)
same,GI50,SF-268,4.67 µM (inactive)
same,GI50,HCT-15,2.33 µM
same,GI50,MDA-MB-435,2.82 µM (inactive)
same,GI50,SN12C,3.37 µM (inactive)
same,GI50,SK-MEL-2,9.66 µM (inactive)
same,GI50,DU-145,5.11 µM (inactive)
same,GI50,SR,0.404 µM (active)
same,GI50,TK-10,1.75 µM (inactive)
same,GI50,UACC-62,2 µM (inactive)
same,GI50,SW-620,2.64 µM (inactive)
same,GI50,KM12,5.68 µM (inactive)
same,GI50,A549,4.47 µM (inactive)
same,GI50,HCT-116,2.42 µM (inactive)
same,GI50,MDA-N,2.24 µM (inactive)
same,GI50,HL-60,2.84 µM (inactive)
same,GI50,786-0,2.61 µM (inactive)
same,GI50,BT-549,6.15 µM (inactive)
same,GI50,PC-3,5.71 µM (inactive)
same,GI50,A498,5.19 µM (inactive)
same,GI50,NCI-H522,0.24 µM (active)
same,GI50,SNB-75,1.5 µM (inactive)
same,GI50,MOLT-4,1.96 µM (inactive)
same,GI50,UACC-257,5.21 µM (inactive)
same,GI50,HT-29,1.85 µM (inactive)
same,GI50,K562,2 µM (inactive)
same,GI50,MCF7,2.79 µM (inactive)
same,GI50,NCI/ADR-RES,8.09 µM (inactive)
same,GI50,OVCAR-4,2.9 µM (inactive)
same,GI50,U-251,3.15 µM (inactive)
same,GI50,NCI-H226,1.67 µM (inactive)
same,GI50,HOP-62,7.96 µM (inactive)
same,GI50,RPMI-8226,1.66 µM (inactive)
same,GI50,RXF 393,2.07 µM (inactive)
same,GI50,Malme-3M,3.29 µM (inactive)
same,GI50,NCI-H460,7.21 µM (inactive)
same,GI50,EKVX,3.13 µM (inactive)
same,GI50,SK-MEL-5,2.36 µM (inactive)
same,GI50,MDA-MB-231,1.81 µM (inactive)
same,GI50,M14,2.59 µM (inactive)
same,GI50,SK-OV-3,8.93 µM (inactive)
